Reference: patent US20130040814A1, “HERBICIDAL COMPOSITION” (ISHIHARA SANGYO KAISHA, LTD., priority 2010, published 2013)
Where a name gives a salt, the structure may show the parent alone.

Tests used:
[1] = tested on: purple nutsedge; assay: Test Example 3: pot test, foliar application of herbicidal composition, visual growth inhibition; format: in vivo, Cyperus rofundus L; conditions: Cyperus, read-out: Growth inhibition rate (%) of purple nutsedge, Measured value
Description: (§1) Measured value of growth inhibition rate(%)(evaluated value by visual observation)=0(equivalent to non-treated area) to 100(complete kill)
(§2) That is, the measured value of growth inhibition rate (%) was rated to be 0% in a case where the level of the growth inhibition of weeds was the same in the non-treated area and to be 100% in a case where the growth was completed inhibited and the weeds were killed.
Upland field soil was put into a 1/1,000,000 ha pot, and tubers of purple nutsedge (Cyperus rofundus L) were planted. 54 days later, when purple nutsedge reached a height of 25 to 30 cm, a predetermined amount of a herbicidal composition was diluted with water (corresponding to 200 L/ha) containing 0.02 vol % of an agricultural adjuvant (tradename: Kusa-rino, manufactured by Nihon Nohyaku Co., Ltd.) and applied by foliar application by means of a small sprayer.
On the 42nd day after application, the state of growth of the plant was visually observed, and in the same manner as in Test Example 1, the measured growth inhibition rate (%) and the calculated growth inhibition rate (%) obtained by the Colby's formula are shown in Table 3.

[2] = tested on: purple nutsedge; assay: Test Example 4: pot test, foliar application of flazasulfuron and dichlobenil wettable powder, visual growth inhibition; format: in vivo; conditions: Cyperus
Description: as §1, §2
(§3) Upland field soil was put into a 1/1,000,000 ha pot, and tubers of purple nutsedge were planted. When purple nutsedge reached a 13 leaf stage, a predetermined amount of SHIBAGEN DF (tradename) and a predetermined amount of a wettable powder containing dichlobenil as an active ingredient (tradename: Kasoron wettable powder, manufactured by AGRO-KANESHO Co., Ltd.) were diluted with water (corresponding to 2,000 L/ha) containing 0.02 vol % of Kusa-rino (tradename) and applied by foliar application by means of a small sprayer.
On the 42nd day after application, the state of growth of purple nutsedge was visually observed, and in the same manner as in Test Example 1, the measured growth inhibition rate (%) and the calculated growth inhibition rate (%) obtained by the Colby's formula are shown in Table 4.

[3] = tested on: green kyllinga; assay: Test Example 6: pot test, sodium salt of trifloxysulfuron and chlorthiamid or dichlobenil, visual growth inhibition; format: in vivo, Kyllinga brevifolia var. leiolepis; conditions: Cyperus brevifolius, 42nd day after application, height 10 cm, read-out: Growth inhibition rate (%) of green kyllinga, Measured value; for inhibition at 5000 g/ha: dose 5,000 g/ha
Description: as §1, §2, §3
Upland field soil was put into a 1/1,000,000 ha pot, rhizomes of green kyllinga (Kyllinga brevifolia var. leiolepis) were planted. When the height of green kyllinga reached 10 cm, a predetermined amount of Monument water dispersible granules (tradename) and a predetermined amount of chlorthiamid (reagent, manufactured by Wako Pure Chemical Industries, Ltd.) or Kasoron wet powder (tradename) were applied in the same manner as in Test Example 4.

[4] = tested on: green kyllinga; assay: Test Example 5: pot test, sodium salt of trifloxysulfuron and chlorthiamid, visual growth inhibition; format: in vivo, Kyllinga brevifolia var. leiolepis; conditions: Cyperus brevifolius, 42nd day after application, height 6 to 8 cm, read-out: Growth inhibition rate (%) of green kyllinga, Measured value
Description: as §1, §2, §3
Upland field soil was put into a 1/1,000,000 ha pot, rhizomes of green kyllinga (Kyllinga brevifolia var. leiolepis) were planted.

[5] = tested on: purple nutsedge; assay: Test Example 1: pot test, foliar application of flazasulfuron and granule application of chlorthiamid, visual growth inhibition; format: in vivo, Cyperus rofundus L.; conditions: Cyperus, read-out: Growth inhibition rate (%) of purple nutsedge, Measured value
Description: When the herbicidal activity in a case where two active ingredients are combined, is larger than the simple sum (the expected activity) of the respective herbicidal activities of the two active ingredients, it is called a synergistic effect. The activity expected by the combination of two active ingredients can be calculated as follows (Colby S. R., “Weed”, vol. 15, p. 20-22, 1967).
(§4) Upland field soil was put into a 1/1,000,000 ha pot, and tubers of purple nutsedge (Cyperus rofundus L.) were planted. 33 days later, when purple nutsedge reached a 6 to 7 leaf stage, a predetermined amount of water dispersible granules containing flazasulfuron as an active ingredient (tradename: SHIBAGEN DF, manufactured by Ishihara Sangyo Kaisha, Ltd.) was diluted with water (corresponding to 200 L/ha) containing 0.02 vol % of an agricultural adjuvant (tradename: Kusa-rino, manufactured by Nihon Nohyaku Co., Ltd.) and applied by foliar application by means of a small sprayer, and a predetermined amount of granules containing chlorthiamid as an active ingredient (tradename: GF Ben-pole granules, manufactured by Suimitomo Chemical Garden Products Inc.) was applied by granule application.
as §1, §2

[6] = tested on: green kyllinga; assay: Test Example 2: pot test on green kyllinga, visual growth inhibition; format: in vivo, Kyllinga brevifolia var. leiolepis; conditions: Cyperus brevifolius, read-out: Growth inhibition rate (%) of green kyllinga, Measured value
Method: as §4, §1, §2
Upland field soil was put into a 1/1,000,000 ha pot, and rhizomes of green kyllinga (Kyllinga brevifolia var. leiolepis) were planted. 46 days later, when the height of green kyllinga reached 4 to 7 cm, a predetermined amount of SHIBAGEN DF, (tradename) and a predetermined amount of GF Ben-pole (tradename) were applied in the same manner as in Test Example 1.

[7] = read-out: Growth inhibition rate (%) of purple nutsedge, Measured value

`N#Cc1c(Cl)cccc1Cl` [Dichlobenil, 2,6-dichlorobenzonitrile] showed an inhibition at 500 g/ha [1] of 10%, an inhibition at 1000 g/ha [1] of 23% and an inhibition at 2000 g/ha [1] of 10%. The inhibition at 4000 g/ha [1] was 33%, the inhibition at 500 g/ha [2, 7] was 10% and the inhibition at 4000 g/ha [2, 7] was 33%. The inhibition at 5000 g/ha [3] was 58%.
Compound `COc1cc(OC)nc(NC(=O)NS(=O)(=O)c2ncccc2OCC(F)(F)F)n1` [Sodium salt of trifloxysulfuron, 1-(4,6-dimethoxypyrimidin-2-yl)-3-[3-(2,2,2-trifluoroethoxy)-2-pyridylsulfonyl]urea] has an inhibition at 10 g/ha ([4]; dose 10 g/ha) of 0%, an inhibition at 200 g/ha ([4]; dose 200 g/ha) of 25% and an inhibition at 45 g/ha ([3]; dose 45 g/ha) of 0%.
Work on `NC(=S)c1c(Cl)cccc1Cl` [Chlorthiamid, 2,6-dichlorothiobenzamide] yielded an inhibition at 1000 g/ha [5] of 35%, an inhibition at 2000 g/ha [5] of 33% and an inhibition at 4000 g/ha [5] of 50%. The inhibition at 6000 g/ha [5] was 69%, the inhibition at 1000 g/ha [6] was 20% and the inhibition at 5000 g/ha [6] was 65%. The inhibition at 500 g/ha [1] was 0%, the inhibition at 1000 g/ha [1] was 0% and the inhibition at 2000 g/ha [1] was 18%. The inhibition at 4000 g/ha [1] was 33%, the inhibition at 1000 g/ha ([4]; dose 1,000 g/ha) was 18% and the inhibition at 10000 g/ha ([4]; dose 10,000 g/ha) was 30%. For the same compound, the inhibition at 5000 g/ha [3] was 58%.
`COc1cc(OC)nc(NC(=O)NS(=O)(=O)c2ncccc2C(F)(F)F)n1` [Flazasulfuron, 1-(4,6-dimethoxypyrimidin-2-yl)-3-(3-trifluoromethyl-2-pyridylsulfonyl)urea] showed an inhibition at 25 g/ha ([5]; dose 25 g/ha, 36th day after application, 6 to 7 leaf stage) of 18%, an inhibition at 50 g/ha ([5]; dose 50 g/ha, 36th day after application, 6 to 7 leaf stage) of 73% and an inhibition at 50 g/ha ([6]; dose 50 g/ha, 54th day after application, height 4 to 7 cm) of 80%. The inhibition at 25 g/ha ([1]; dose 25 g/ha, 42nd day after application, height 25 to 30 cm) was 87%, the inhibition at 50 g/ha ([1]; dose 50 g/ha, 42nd day after application, height 25 to 30 cm) was 98% and the inhibition at 25 g/ha ([2]; dose 25 g/ha, 42nd day after application, 13 leaf stage, read-out: Growth inhibition rate (%) of Purple nutsedge, Measured value) was 87%.
